A value given as a limit tells only on which side of the number the result lay.

T1 sequence (O75530 76-441 limits assumed): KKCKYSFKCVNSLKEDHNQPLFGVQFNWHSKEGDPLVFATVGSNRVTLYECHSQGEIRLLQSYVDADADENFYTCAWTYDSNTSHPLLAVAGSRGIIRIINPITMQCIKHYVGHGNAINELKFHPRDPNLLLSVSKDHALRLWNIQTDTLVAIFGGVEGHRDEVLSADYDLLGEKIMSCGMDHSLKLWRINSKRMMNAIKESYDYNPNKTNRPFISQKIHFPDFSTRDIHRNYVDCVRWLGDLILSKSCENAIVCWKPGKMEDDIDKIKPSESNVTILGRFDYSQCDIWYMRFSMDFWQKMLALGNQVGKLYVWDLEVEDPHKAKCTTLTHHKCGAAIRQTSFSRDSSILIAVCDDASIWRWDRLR

The experiment concerns the target T1, biotinylated AVI-tagged EED (76-441) (Homo sapiens, UniProt O75530).
T1 construct: GST (N, cleaved yes); made in house; host or cells: E. coli BL21(DE3), co-expressed with pGro7
The experiment in a line: EED binding SPR assay. Conditions: 1:1 binding model; read-out: KD, equilibrium dissociation constant as measured by surface plasmon resonance (SPR). In outline:
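Biotinylated AVI-EED(76-441) from E. coli was captured on Biotin CAPture chips (2200–2400 RU) in 10 mM HEPES pH 7.4, 150 mM NaCl, 0.05% Tween 20 and 2% DMSO. Compounds were run at 7 concentrations (3-fold dilutions) with 90 s association and 180 s dissociation, chip at 25 °C. Data were fitted to a 1:1 binding model.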
Consider `CC(=O)N1CCC(c2cc3c(n4cnnc24)NCc2c(F)cccc2CCO3)CC1` [Compound 4, 1-(4-(12-fluoro-7,8,13,14-tetrahydro-[1,2,4]triazolo[4′,3′:1,6]pyrido[3,2-b]benzo[f][1,4]oxazonin-4-yl)piperidin-1-yl)ethan-1-one], for which the Kd lay within 10 to 50 nM. As for `Cc1cn(-c2cc3c(n4cnnc24)NCc2c(F)ccc4c2[C@@H](CO4)CO3)cn1` [Compound 15, (S)-12-fluoro-4-(4-methyl-1H-imidazol-1-yl)-7a,8,13,14-tetrahydro-7H-[1,2,4]triazolo[4′,3′:1,6]pyrido[3,2-b]benzofuro[4,3-fg][1,4]oxazonine], the Kd was under 2.5 nM.

Consider `Cn1nc(F)cc1-c1cc2c(n3cnnc13)NCc1c(F)ccc3c1[C@@H](CO3)CO2` [Compound 168, (S)-12-fluoro-4-(3-fluoro-1-methyl-1H-pyrazol-5-yl)-7a,8,13,14-tetrahydro-7H-[1,2,4]triazolo[4′,3′:1,6]pyrido[3,2-b]benzofuro[4,3-fg][1,4]oxazonine], for which the Kd was under 2.5 nM. The figure for `Cc1ncccc1-c1cc2c(n3cc(C(N)=O)nc13)NCc1c(F)ccc3c1[C@@H](CO3)CO2` [Compound 176, (S)-5-fluoro-12-(2-methylpyridin-3-yl)-6,7,15,15a-tetrahydro-1H-benzofuro[4,3-fg]imidazo[r,2′:1,6]pyrido[3,2-b][1,4]oxazonine-10-carboxamide] is 10 to 50 nM; for `Cn1cc(Cc2cc3c(n4cnnc24)NCc2c(F)ccc4c2[C@@H](CO4)CO3)cn1` [Compound 10, (S)-12-fluoro-4-((1-methyl-1H-pyrazol-4-yl)methyl)-7a,8,13,14-tetrahydro-7H-[1,2,4]triazolo[4′,3′:1,6]pyrido[3,2-b]benzofuro[4,3-fg][1,4]oxazonine] it is 5 to 10 nM; for `Cc1cc(C#N)ccc1-c1cc2c(n3cnnc13)NCc1c(F)ccc3c1[C@H](CO3)CO2` [Example 49] it is under 2.5 nM. For `Cn1nccc1-c1cc2c(n3cc(C(N)=O)nc13)NCc1c(F)ccc3c1[C@@H](CO3)CO2` [Compound 175, (S)-5-fluoro-12-(1-methyl-1H-pyrazol-5-yl)-6,7,15,15a-tetrahydro-1H-benzofuro[4,3-fg]imidazo[r,2′:1,6]pyrido[3,2-b][1,4]oxazonine-10-carboxamide] the value was under 2.5 nM.

With `Cn1nc(C(F)(F)F)cc1-c1cc2c(n3cnnc13)NCc1c(F)ccc3c1[C@H](CO3)CO2` [Example 115], the Kd was under 2.5 nM. On to `Cc1ncccc1-c1cc2c(n3cc(C#N)nc13)NCc1c(F)ccc3c1[C@@H](CO3)CO2` [Compound 186, (S)-5-fluoro-12-(2-methylpyridin-3-yl)-6,7,15,15a-tetrahydro-1H-benzofuro[4,3-fg]imidazo[1′,2′:1,6]pyrido[3,2-b][1,4]oxazonine-10-carbonitrile], for which the dissociation constant Kd is under 2.5 nM. For `Cc1ncccc1-c1cc2c(n3cnnc13)NCc1cccc3c1[C@H](CO3)CO2` [Compound 1, (15R)-10-(2-methyl-3-pyridyl)-13,17-dioxa-3,5,7,8-tetrazapentacyclo[13.6.1.04,12.05,9.018,22] docosa-1(22),4(12),6,8,10,18,20-heptaene], the Kd was under 2.5 nM.

Consider `Cc1ncccc1-c1cc2c(n3cnnc13)NCc1c(F)cccc1COC2` [Compound 6, 12-fluoro-4-(2-methylpyridin-3-yl)-6,8,13,14-tetrahydro-[1,2,4]triazolo[4′,3′:1,6]pyrido[3,2-c]benzo[g][1,5]oxazonine], for which the Kd is over 50 nM. Turning to `Fc1ccc2c3c1CNc1c(cc(Br)c4nncn14)OC[C@@H]3CO2` [Compound 165, (S)-4-bromo-12-fluoro-7a,8,13,14-tetrahydro-7H-[1,2,4]triazolo[4′,3′:1,6]pyrido[3,2-b]benzofuro[4,3-fg][1,4]oxazonine], the Kd was in the range of 10 to 50 nM. With `Cn1nc(C(C)(C)C#N)cc1-c1cc2c(n3cnnc13)NCc1c(F)ccc3c1[C@@H](CO3)CO2` [Compound 169, (S)-2-(5-(12-fluoro-7a,8,13,14-tetrahydro-7H-[1,2,4]triazolo[4′,3′:1,6]pyrido[3,2-b]benzofuro[4,3-fg][1,4]oxazonin-4-yl)-1-methyl-1H-pyrazol-3-yl)-2-methylpropanenitrile], the Kd is under 2.5 nM. The figure for `COC(=O)N1CCC(c2cc3c(n4cnnc24)NCc2c(F)ccc4c2C(CO4)CO3)CC1` [Compound 16, methyl (S)-4-(12-fluoro-7a,8,13,14-tetrahydro-7H-[1,2,4]triazolo[4′,3′:1,6]pyrido[3,2-b]benzofuro[4,3-fg][1,4]oxazonin-4-yl)piperidine-1-carboxylate] is under 2.5 nM. On to `CS(=O)(=O)c1ccc(-c2cc3c(n4cnnc24)NCc2c(F)ccc4c2C(CO4)CO3)cc1` (centres unmarked) [Example 36], for which the dissociation constant (Kd) is under 2.5 nM. For `CC(=O)N1CCC(c2cc3c(n4cnnc24)NCc2cccc4c2[C@@H](CO4)CO3)CC1` [Compound 3, (S)-1-(4-(7a,8,13,14-tetrahydro-7H-[1,2,4]triazolo[4′,3′:1,6]pyrido[3,2-b]benzofuro[4,3-fg][1,4]oxazonin-4-yl)piperidin-1-yl)ethan-1-one] the value was under 2.5 nM; for `Cn1nc(OC(F)F)cc1-c1cc2c(n3cnnc13)NCc1c(F)ccc3c1[C@@H](CO3)CO2` [Compound 167, (S)-4-(3-(difluoromethoxy)-1-methyl-1H-pyrazol-5-yl)-12-fluoro-7a,8,13,14-tetrahydro-7H-[1,2,4]triazolo[4′,3′:1,6]pyrido[3,2-b]benzofuro[4,3-fg][1,4]oxazonine], under 2.5 nM; for `Cc1ncoc1-c1cc2c(n3cnnc13)NCc1c(F)ccc3c1[C@@H](CO3)CO2` [Compound 189, (S)-12-fluoro-4-(4-methyloxazol-5-yl)-7a,8,13,14-tetrahydro-7H-[1,2,4]triazolo[4′,3′:1,6]pyrido[3,2-b]benzofuro[4,3-fg][1,4]oxazonine], under 2.5 nM.

`CN(CC(F)(F)F)C(=O)c1cc2c(n3cnnc13)NCc1c(F)ccc3c1C(CO3)CO2` (centres unmarked) [Example 38]: the Kd lay in the range of 2.5 to 5 nM. For `Cc1ncc(-c2cc3c(n4cnnc24)NCc2c(F)cccc2CCO3)c(C)n1` [Compound 14, 4-(2,4-dimethylpyrimidin-5-yl)-12-fluoro-7,8,13,14-tetrahydro-[1,2,4]triazolo[4′,3′:1,6]pyrido[3,2-b]benzo[f][1,4]oxazonine] the value was 10 to 50 nM; for `Cc1ncccc1-c1cc2c(n3cnnc13)NCc1c(F)cccc1CCO2` [Compound 5, 12-fluoro-4-(2-methylpyridin-3-yl)-7,8,13,14-tetrahydro-[1,2,4]triazolo[4′,3′:1,6]pyrido[3,2-b]benzo[f][1,4]oxazonine], 5 to 10 nM; for `Cc1ncc(-c2cc3c(n4cnnc24)NCc2c(F)ccc4c2[C@@H](CO4)CO3)c(C)n1` [Compound 13, (S)-4-(2,4-dimethylpyrimidin-5-yl)-12-fluoro-7a,8,13,14-tetrahydro-7H-[1,2,4]triazolo[4′,3′:1,6]pyrido[3,2-b]benzofuro[4,3-fg][1,4]oxazonine], under 2.5 nM.

Take `Cn1nccc1-c1cc2c(n3cnnc13)NCc1c(F)ccc3c1C(CO3)CO2` (centres unmarked) [Example 17]: the dissociation constant Kd was under 2.5 nM.

As for `Cn1nccc1-c1cc2c(n3cc(C#N)nc13)NCc1c(F)ccc3c1[C@@H](CO3)CO2` [Compound 172, (S)-5-fluoro-12-(1-methyl-1H-pyrazol-5-yl)-6,7,15,15a-tetrahydro-1H-benzofuro[4,3-fg]imidazo[r,2′:1,6]pyrido[3,2-b][1,4]oxazonine-10-carbonitrile], the dissociation constant (Kd) was under 2.5 nM.

As for `Cn1cc(Cc2cc3c(n4cnnc24)NCc2cccc4c2[C@@H](CO4)CO3)cn1` [Compound 7, (S)-4-((1-methyl-1H-pyrazol-4-yl)methyl)-7a,8,13,14-tetrahydro-7H-[1,2,4]triazolo[4′,3′:1,6]pyrido[3,2-b]benzofuro[4,3-fg][1,4]oxazonine], the dissociation constant (Kd) lay within 10 to 50 nM. On to `COc1ncc(-c2cc3c(n4cnnc24)NCc2c(F)ccc4c2[C@H](CO4)CO3)cn1` [Example 30], for which the Kd is under 2.5 nM. `Fc1cncnc1-c1cc2c(n3cnnc13)NCc1c(F)ccc3c1[C@@H](CO3)CO2` [Compound 164, (S)-12-fluoro-4-(5-fluoropyrimidin-4-yl)-7a,8,13,14-tetrahydro-7H-[1,2,4]triazolo[4′,3′:1,6]pyrido[3,2-b]benzofuro[4,3-fg][1,4]oxazonine]: the Kd is under 2.5 nM. As for `c1cc2c3c(c1)OC[C@H]3COc1ccc3nncn3c1NC2` [Compound 11, (S)-7a,8,13,14-tetrahydro-7H-[1,2,4]triazolo[4′,3′:1,6]pyrido[3,2-b]benzofuro[4,3-fg][1,4]oxazonine], the Kd is over 50 nM. On to `Fc1ccc2c3c1CNc1c(cc(C4COC4)c4nncn14)OC[C@@H]3CO2` [Compound 12, (S)-12-fluoro-4-(oxetan-3-yl)-7a,8,13,14-tetrahydro-7H-[1,2,4]triazolo[4′,3′:1,6]pyrido[3,2-b]benzofuro[4,3-fg][1,4]oxazonine], for which the Kd was 2.5 to 5 nM.

(Values after patent US20220160686A1, “MACROCYCLIC AZOLOPYRIDINE DERIVATIVES AS EED AND PRC2 MODULATORS” (Fulcrum Therapeutics, Inc., priority 2019, published 2022).)
